System: HEPG2 cells
Assay: Fluorescence imaging of RDP-1 with HEPG2 cells (PalmB, palmitate)
Format: cell-based, human
Settings: 40 μM PalmB 30 min, 1 μM RDP-1
Experimental: HEPG2 were plated with […] of DMEM (Gibco, Gaithersburg, Md., United States of America; High Glucose, Glutamax, 10% FBS) a four well chambered imaging dish (D35C4-20-1.5-N, Cellvis, Mountain View, Calif., United States of America) which were precoated with 4 μg Poly-D-lysine (30-70 KDa, Alfa Aesar, Haverhill, Mass., United States of America) for 2 h at room temperature or overnight at 4° C. and grown to ca. 80% confluence prior to imaging. 30 min before the addition of the RDP, the cell culture media was removed and cells were washed with 500 μL of serum-free DMEM (Gibco, Gaithersburg, Md., United States of America; High Glucose, Glutamax, no FBS). The media was then replaced with 500 μL of serum-free DMEM containing 100 nM Mitotracker Deep Red (Thermo Fisher Scientific, Waltham, Mass., United States of America) to assist in focusing and processing) and either 0.1% DMSO carrier as a control or Palm B in DMSO and incubated for 30 min at 37° C. and 5% CO2. The media was removed, the cells were washed with 500 μL of Live Cell Imaging Solution (Thermo Fisher Scientific, Waltham, Mass., United States of America), and 500 μL of 1 μM RDP-1 along with the Palm B or DMSO as control in Live Cell Imaging Solution was added to each well. […]

With CCCCCCCCCC[C@@H]1C(=O)O[C@H]1CCc1ccc(OC)c(OC)c1 [PalmB, palmostatin B] the “decrease in deacylation of RDP-1” value was “about 60%”.

— US10413583B2, “Synthetic substrates for enzymes that catalyze reactions of modified cysteines and related methods” (The University of Chicago, priority 2016, dated 2019)
